Calls of active or inactive are those of the source.
Columns and labels:
[1] = target: Heat shock protein HSP 90-alpha (Homo sapiens, UniProt P07900); format: functional, organism-based
cells [2] = format: functional, cell-based
[3] = C. albicans growth with fluconazole, confirmation, fluorescence, retest (AID 2467); format: functional, cell-based
[4] = NIH-3T3 fibroblast cytotoxicity, dose response, cytotoxicity control, cell-based, fluorescence, Alamar Blue, secondary assay (AID 2327); format: functional;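 also: NIH-3T3 mouse fibroblasts cultured with fluconazole at 8 µg/mL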
[5] = cytotoxicity in NIH3T3 fibroblasts, dose response, cytotoxicity control for HSP40 inhibitor project, cell-based, CellTiter-Glo luminescence, cherry-pick, set 2 (AID 624265); format: functional
cells [6] = format: functional, cell-based; remark: listed apart in the source
INS1 = test: beta cell apoptosis inhibitors, cytokine rescue, dose response, luminescence, retest (AID 449756); format: functional, cell-based; conditions: Rattus norvegicus;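 also: cell death triggered by IL-1 beta plus TNF-alpha plus IFN-gamma mixture; protective hits raise ATP signal compared with cytokine alone wells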
[7] = target: T1, Heat shock factor protein 1 (Mus musculus, UniProt P38532); test: inhibition of MG132-induced HSE-luciferase signal, confirmation, cell-based, NIH3T3, luminescence, dose retest (AID 2382); format: functional;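 also: NIH3T3 fibroblasts with HSF1-driven luciferase reporter stressed by proteasome inhibitor MG132; luminescence from HSF1-driven luciferase expression after 8 hours of MG132 stress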
T1 sequence (P38532 whole entry): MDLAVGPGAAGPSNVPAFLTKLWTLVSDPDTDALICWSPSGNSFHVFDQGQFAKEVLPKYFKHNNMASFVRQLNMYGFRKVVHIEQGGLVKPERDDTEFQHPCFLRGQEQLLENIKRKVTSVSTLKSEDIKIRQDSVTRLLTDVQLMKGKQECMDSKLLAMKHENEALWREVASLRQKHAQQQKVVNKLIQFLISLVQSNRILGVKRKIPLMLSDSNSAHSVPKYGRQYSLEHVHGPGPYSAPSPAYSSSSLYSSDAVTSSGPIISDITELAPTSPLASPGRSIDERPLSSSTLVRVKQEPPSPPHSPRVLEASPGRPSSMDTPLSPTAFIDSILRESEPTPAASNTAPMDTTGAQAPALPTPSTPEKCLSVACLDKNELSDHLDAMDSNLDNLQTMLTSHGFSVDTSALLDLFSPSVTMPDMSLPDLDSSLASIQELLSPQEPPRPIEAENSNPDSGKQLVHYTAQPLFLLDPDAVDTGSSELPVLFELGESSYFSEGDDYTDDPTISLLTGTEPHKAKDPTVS

[8] = target: T2, Probable nicotinate-nucleotide adenylyltransferase (Staphylococcus aureus (strain N315), UniProt P65502); format: functional, Staphylococcus aureus subsp. aureus N315; conditions: read-out: IC50_Mean;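 as to IC50 Mean: confirmatory dose-response retesting of NadD inhibitor hits first found in an ultra-high-throughput screen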
T2 sequence (P65502 whole entry): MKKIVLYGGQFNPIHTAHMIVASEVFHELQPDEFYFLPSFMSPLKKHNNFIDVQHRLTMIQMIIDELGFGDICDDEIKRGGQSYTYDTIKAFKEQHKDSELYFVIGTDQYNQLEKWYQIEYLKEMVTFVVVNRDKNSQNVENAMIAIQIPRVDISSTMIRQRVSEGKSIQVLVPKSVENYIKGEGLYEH

[9] = target: T2, Probable nicotinate-nucleotide adenylyltransferase; format: functional, Staphylococcus aureus subsp. aureus N315
[10] = target: ADP-ribosylation factor GTPase-activating protein 1 (Rattus norvegicus, UniProt Q62848); test: Fluorescence polarization-based biochemical high throughput dose response screening assay to identify inhibitors of ADP-ribosylation factor GTPase activating protein 1 (ARFGAP1).; format: functional
Chain of ADP-ribosylation factor GTPase-activating protein 1 (Q62848 whole entry): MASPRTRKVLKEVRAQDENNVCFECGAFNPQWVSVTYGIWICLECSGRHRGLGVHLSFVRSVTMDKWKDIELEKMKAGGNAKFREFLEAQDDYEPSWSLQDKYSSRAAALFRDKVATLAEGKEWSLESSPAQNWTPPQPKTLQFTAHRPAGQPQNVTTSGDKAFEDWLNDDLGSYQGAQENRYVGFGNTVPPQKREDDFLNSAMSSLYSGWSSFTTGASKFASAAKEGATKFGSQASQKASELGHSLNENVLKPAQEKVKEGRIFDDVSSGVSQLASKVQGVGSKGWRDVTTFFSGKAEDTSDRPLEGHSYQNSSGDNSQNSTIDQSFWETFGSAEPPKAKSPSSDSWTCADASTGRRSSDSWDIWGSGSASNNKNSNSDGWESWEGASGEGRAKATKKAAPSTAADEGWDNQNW

[11] = target: Nuclear receptor subfamily 5 group A member 2 (Homo sapiens, UniProt O00482); format: functional, cell-based;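 also: HEK293T cells transfected with LRH-1 and a StAR promoter luciferase reporter; potency for inhibitors that lower LRH-1 driven reporter light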
Chain of Nuclear receptor subfamily 5 group A member 2 (O00482 whole entry): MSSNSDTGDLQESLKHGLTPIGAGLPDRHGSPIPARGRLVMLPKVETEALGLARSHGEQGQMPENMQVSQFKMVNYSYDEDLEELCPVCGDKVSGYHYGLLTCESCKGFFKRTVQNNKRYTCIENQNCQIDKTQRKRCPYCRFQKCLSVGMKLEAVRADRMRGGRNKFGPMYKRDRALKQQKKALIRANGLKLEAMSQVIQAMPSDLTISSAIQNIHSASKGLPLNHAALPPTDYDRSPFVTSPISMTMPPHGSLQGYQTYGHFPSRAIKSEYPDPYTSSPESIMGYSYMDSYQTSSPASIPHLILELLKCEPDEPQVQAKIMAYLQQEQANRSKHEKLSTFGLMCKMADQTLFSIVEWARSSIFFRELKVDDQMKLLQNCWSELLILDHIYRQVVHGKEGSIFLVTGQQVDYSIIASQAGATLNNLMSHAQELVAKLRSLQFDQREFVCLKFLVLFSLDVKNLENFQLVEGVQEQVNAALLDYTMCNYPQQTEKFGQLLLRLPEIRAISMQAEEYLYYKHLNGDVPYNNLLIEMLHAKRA

Steroidogenic factor 1 = Steroidogenic factor 1 (Homo sapiens, UniProt Q13285); test: Counterscreen for inverse agonists of the liver receptor homolog-1 (LRH-1; NR5A2): Luminescence-based cell-based high throughput dose response assay to identify inverse agonists of the Steroidogenic Factor 1 Nuclear Receptor (SF1; NR5A1).; format: functional
Chain of Steroidogenic factor 1 (Q13285 whole entry): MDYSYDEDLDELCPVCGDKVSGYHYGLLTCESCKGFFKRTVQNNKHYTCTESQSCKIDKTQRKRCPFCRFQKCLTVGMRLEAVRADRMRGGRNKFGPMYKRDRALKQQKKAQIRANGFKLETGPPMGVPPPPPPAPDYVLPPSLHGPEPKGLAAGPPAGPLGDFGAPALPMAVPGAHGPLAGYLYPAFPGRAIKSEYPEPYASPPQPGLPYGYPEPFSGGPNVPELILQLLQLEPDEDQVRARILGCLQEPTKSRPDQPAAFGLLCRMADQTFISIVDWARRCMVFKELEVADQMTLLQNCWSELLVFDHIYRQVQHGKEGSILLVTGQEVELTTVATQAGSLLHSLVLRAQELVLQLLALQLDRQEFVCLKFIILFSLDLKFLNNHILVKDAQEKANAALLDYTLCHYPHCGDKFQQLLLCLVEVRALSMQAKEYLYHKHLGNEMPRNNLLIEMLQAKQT

[12] = target: Mitogen-activated protein kinase 10 (Homo sapiens, UniProt P53779); test: Dose response biochemical screening assay for inhibitors of c-Jun N-Terminal Kinase 3 (JNK3). [Related pubchem assays: 746 ]
Chain of Mitogen-activated protein kinase 10 (P53779 whole entry): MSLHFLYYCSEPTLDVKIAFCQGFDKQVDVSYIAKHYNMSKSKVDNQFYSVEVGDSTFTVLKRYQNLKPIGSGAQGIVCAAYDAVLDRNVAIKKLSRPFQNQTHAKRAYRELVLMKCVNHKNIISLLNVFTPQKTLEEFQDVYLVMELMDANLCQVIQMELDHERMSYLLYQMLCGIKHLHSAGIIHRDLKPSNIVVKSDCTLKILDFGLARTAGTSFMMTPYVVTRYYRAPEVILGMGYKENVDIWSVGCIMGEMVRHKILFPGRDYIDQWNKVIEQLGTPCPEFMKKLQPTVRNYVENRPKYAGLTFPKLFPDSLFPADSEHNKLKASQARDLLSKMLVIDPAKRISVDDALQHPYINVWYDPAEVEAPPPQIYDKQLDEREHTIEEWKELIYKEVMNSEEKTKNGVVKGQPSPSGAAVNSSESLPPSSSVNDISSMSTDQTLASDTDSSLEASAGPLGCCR

[13] = StAR promoter reporter inhibition counter-screen, dose response, counter-screen for LRH-1 inverse agonist project, cell-based, luminescence, luciferase reporter (AID 651969); format: functional
[14] = target: T3, ATP-dependent translocase ABCB1 (Homo sapiens, UniProt P08183); test: ABCG2 efflux pump inhibitor potency, dose response, Ig-MXP3 cells, JC-1, flow cytometry, set 2 (AID 504566); format: functional; conditions: read-out: EC50_MICROM_;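 also: flow cytometry median green fluorescence of retained JC-1 dye; potency of efflux pump inhibition measured as rising substrate retention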
T3 sequence (P08183 whole entry): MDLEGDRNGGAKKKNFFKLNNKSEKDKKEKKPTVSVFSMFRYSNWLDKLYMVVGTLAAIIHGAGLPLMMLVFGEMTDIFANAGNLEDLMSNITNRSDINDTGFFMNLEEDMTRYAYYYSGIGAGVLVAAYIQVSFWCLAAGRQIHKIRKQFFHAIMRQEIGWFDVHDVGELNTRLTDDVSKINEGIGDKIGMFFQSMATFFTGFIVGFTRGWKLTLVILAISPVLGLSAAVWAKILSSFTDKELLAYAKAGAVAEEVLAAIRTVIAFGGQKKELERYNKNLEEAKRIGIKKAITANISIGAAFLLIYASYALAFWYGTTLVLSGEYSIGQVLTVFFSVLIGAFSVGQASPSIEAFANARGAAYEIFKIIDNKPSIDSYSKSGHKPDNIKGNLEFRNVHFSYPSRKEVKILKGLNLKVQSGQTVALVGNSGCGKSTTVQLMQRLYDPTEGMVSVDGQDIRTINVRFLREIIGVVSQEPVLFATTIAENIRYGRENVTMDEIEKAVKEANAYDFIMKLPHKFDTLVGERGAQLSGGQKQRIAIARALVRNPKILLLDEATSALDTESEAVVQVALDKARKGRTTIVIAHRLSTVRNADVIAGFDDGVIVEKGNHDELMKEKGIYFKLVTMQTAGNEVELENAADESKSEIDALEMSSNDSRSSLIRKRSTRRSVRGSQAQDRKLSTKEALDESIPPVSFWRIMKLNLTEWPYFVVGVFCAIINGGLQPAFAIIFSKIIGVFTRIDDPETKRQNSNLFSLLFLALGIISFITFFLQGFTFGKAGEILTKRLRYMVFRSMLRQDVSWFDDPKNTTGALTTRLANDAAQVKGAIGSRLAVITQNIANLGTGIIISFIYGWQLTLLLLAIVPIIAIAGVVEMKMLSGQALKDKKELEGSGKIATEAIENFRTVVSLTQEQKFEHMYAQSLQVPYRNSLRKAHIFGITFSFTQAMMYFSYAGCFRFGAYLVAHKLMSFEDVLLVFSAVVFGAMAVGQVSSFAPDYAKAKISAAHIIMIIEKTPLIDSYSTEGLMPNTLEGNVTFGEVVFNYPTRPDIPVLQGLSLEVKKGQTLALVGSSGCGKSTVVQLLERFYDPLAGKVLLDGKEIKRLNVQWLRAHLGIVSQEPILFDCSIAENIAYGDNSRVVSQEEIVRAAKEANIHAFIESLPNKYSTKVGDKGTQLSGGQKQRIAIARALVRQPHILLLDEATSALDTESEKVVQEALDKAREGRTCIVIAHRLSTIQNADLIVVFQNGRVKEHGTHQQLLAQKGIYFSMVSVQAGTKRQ

[15] = target: T3, ATP-dependent translocase ABCB1; test: ABCB1 efflux inhibitor potency, dose response, Jurkat-DNR cells, JC-1, flow cytometry, set 2 (AID 504569); format: functional; conditions: read-out: EC50_MICROM_;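 also: potency of pump inhibitors that raise cellular JC-1 green fluorescence up to the nicardipine level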
[16] = CRF-BP/CRF-R2 complex antagonists, dose response, cell-based, uHTS hits, 384-well (AID 651639); format: functional, Homo sapiens; conditions: read-out: IC50_Mean
[17] = target: T4, Corticotropin-releasing factor receptor 2/Corticotropin-releasing factor-binding protein (Homo sapiens, UniProt P24387+Q13324); test: activators of CRF receptor 2 with binding protein – uHTS hits, confirmation (AID 602473); format: functional; conditions: read-out: EC50_Mean
T4 sequence (Q13324 whole entry): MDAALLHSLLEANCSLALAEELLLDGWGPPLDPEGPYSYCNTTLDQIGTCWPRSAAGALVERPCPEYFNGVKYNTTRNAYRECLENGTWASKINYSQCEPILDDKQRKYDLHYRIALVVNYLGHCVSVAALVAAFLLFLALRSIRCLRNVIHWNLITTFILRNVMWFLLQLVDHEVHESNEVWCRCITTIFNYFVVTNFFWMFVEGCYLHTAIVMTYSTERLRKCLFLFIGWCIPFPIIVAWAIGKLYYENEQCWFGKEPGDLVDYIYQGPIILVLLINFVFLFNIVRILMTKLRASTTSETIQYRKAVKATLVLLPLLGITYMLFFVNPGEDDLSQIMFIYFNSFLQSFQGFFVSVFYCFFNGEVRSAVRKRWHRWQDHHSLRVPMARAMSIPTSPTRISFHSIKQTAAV
T4 sequence (P24387 whole entry): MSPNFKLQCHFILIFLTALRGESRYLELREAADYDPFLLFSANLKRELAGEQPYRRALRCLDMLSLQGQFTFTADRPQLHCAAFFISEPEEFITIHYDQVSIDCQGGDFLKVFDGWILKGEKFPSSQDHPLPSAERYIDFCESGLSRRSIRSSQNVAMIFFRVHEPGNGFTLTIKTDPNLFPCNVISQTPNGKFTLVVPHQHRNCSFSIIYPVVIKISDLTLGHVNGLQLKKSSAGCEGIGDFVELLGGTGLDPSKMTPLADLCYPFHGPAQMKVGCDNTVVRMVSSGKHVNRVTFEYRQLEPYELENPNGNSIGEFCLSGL

[18] = target: T4, Corticotropin-releasing factor receptor 2/Corticotropin-releasing factor-binding protein; test: Dose Response confirmation of uHTS hits for small molecule antagonists of the CRF-binding protein and CRF-R2 receptor complex.; format: functional; conditions: read-out: IC50_Mean
[19] = HeLa cell cytotoxicity, dose response, cytotoxicity control for MgcRacGAP inhibitor project (AID 624300); format: functional
[20] = target: T5, Rac GTPase-activating protein 1 (Homo sapiens, UniProt Q9H0H5); test: MgcRacGAP GTPase-activating activity inhibitors, confirmation, biochemical, ADP Hunter fluorescence, primary and confirmatory (AID 624330); format: functional
T5 sequence (Q9H0H5 whole entry): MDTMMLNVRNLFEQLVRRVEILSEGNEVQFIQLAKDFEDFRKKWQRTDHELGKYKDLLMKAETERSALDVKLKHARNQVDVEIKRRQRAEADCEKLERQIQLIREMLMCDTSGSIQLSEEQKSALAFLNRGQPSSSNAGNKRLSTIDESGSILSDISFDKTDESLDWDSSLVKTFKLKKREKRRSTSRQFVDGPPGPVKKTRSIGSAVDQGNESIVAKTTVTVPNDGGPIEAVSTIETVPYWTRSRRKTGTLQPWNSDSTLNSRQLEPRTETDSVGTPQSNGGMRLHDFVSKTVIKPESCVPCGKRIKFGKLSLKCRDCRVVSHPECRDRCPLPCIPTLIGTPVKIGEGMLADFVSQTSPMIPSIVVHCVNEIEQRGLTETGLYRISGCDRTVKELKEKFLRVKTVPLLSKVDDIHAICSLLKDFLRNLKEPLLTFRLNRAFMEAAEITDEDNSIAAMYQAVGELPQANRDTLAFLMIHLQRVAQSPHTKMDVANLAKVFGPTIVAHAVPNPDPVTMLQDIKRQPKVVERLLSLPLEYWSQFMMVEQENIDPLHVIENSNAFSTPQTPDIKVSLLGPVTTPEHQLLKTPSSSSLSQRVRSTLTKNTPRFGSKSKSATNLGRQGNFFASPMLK

[21] = microbe, parasite or virus in culture; format: functional; conditions: Mycobacterium tuberculosis
[22] = target: T6, Sentrin-specific protease 1 (Homo sapiens, UniProt Q9P0U3); test: Dose response confirmation of small molecule inhibitors of the catalytic domain of the SUMO protease, SENP1 in a FRET assay.; format: functional; conditions: read-out: IC50_Mean
T6 sequence (Q9P0U3 whole entry, the tested form may be a part): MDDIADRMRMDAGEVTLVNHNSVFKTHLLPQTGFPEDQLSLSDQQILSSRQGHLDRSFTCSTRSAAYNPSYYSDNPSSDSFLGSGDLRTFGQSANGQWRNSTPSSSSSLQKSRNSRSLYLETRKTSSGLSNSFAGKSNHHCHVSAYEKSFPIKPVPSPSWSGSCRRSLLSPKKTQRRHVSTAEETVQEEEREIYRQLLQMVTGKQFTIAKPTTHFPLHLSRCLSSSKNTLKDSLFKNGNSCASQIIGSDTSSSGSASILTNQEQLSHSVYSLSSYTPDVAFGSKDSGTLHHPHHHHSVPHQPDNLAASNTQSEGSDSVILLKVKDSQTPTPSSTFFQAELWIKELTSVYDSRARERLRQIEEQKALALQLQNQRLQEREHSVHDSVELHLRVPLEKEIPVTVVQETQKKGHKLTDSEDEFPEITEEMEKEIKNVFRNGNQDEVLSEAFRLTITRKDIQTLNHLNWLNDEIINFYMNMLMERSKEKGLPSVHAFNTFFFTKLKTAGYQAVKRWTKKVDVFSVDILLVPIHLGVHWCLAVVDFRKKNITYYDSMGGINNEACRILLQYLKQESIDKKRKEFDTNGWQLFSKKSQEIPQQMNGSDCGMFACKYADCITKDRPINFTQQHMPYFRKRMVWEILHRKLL

[23] = target: T6, Sentrin-specific protease 1; test: potency of human SENP1 inhibitors, dose response, biochemical, kinetic FRET (AID 651697); format: functional; conditions: read-out: IC50_Mean
[24] = Shn3 3'UTR reporter inhibitors, dose response, cell-based, Clone20 osteoblasts, firefly luciferase, cherry-picked (AID 624132); format: functional;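 also: firefly luciferase luminescence from reporter carrying the Shn3 3'UTR in osteoblasts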
[25] = HepG2 cell cytotoxicity, dose response, cytotoxicity control for Shn3 inhibitor project, CellTiter-Glo, cherry-picked (AID 624134); format: functional, cell-based
Beta Lactamase = Beta Lactamase (Pseudomonas aeruginosa, UniProt Q932Y6); test: beta-lactamase reporter inhibitor potency, dose response, artefact control for NOD2-RIPK2 interaction inhibitor project, BLA reporter cells, FRET fluorescence (AID 651552); format: functional, cell-based
Chain of Beta Lactamase (Q932Y6 whole entry): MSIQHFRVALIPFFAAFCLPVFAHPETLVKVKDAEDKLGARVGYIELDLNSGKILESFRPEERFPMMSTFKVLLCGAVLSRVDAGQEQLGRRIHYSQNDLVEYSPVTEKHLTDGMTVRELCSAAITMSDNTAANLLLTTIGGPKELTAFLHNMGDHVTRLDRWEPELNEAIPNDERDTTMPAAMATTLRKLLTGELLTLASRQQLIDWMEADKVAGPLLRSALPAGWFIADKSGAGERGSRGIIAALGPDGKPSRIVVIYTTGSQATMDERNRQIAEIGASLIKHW

[26] = control 3'UTR Renilla luciferase suppression, dose response, counter-screen for Shn3 inhibitor project, cell-based, Clone20-Shn3RL, cherry-picked (AID 624133); format: functional
[27] = Fluorescence-based cell-based high throughput dose response assay for inhibitors of the interaction of nucleotide-binding oligomerization domain containing 2 (NOD2) and the receptor-interacting serine-threonine kinase 2 (RIPK2).; format: functional; conditions: Homo sapiens

For `Oc1ccc(Br)cc1/C=N/Nc1ccccn1`, the AC50 [1] was 1.32 µM (active), the EC50 (cells [2]) was 6.83 µM (active) and the EC50 [3] was 1.51 µM (active). The EC50 [4] was 3.83 µM (inconclusive), the AbsAC35_uM [5] was 82.89 µM and the EC50 (cells [6]) was 22.5 µM (active). For the same compound, the AC50 (INS1) was 1.98 µM (active) and the EC50 [7] was 3.19 µM (active).

For `Cc1nn(-c2ccccc2)c(N2CCCC2)c1/C=N/NC(=O)c1cccc(S(=O)(=O)Nc2ccc(Cl)cc2)c1`, the IC50 [8] was 28.9 µM (active) and the IC50 [9] was 8.05 µM (active).

For `Cc1cc(=O)oc2cc(OCc3ccc(C(=O)OCC(=O)Nc4ccccc4OC(F)F)cc3)ccc12`, the IC50 [10] was 31.3 µM (inactive).

With `O=C(NCc1cccnc1)c1cccc2c1C(=O)N(C1CCCCC1)C2` the IC50 [11] was 17.8 µM (inactive), the IC50 (Steroidogenic factor 1) was 3.71 µM (active) and the IC50 [12] was 27.4 µM (not active). For the same compound, the IC50 [13] was 35.9 µM (inactive).

With `Cc1cc(N2CCN(C(=O)c3ccoc3)CC2)n2nc(-c3ccc(Br)cc3)cc2n1` the EC50 [14] was 2.08 µM (active) and the EC50 [15] was 11.2 µM (active).

In the case of `COc1cccc(C2CC(c3cccs3)=NN2C(=O)c2ccco2)c1O` (stereo unspecified), the IC50 [16] is reported as 1.51 µM (active), the EC50 [17] is reported as > 53 µM (inactive) and the IC50 [18] is reported as 5.3 µM (active).

With `C/C(=N\NC(=O)c1ccc(O)cc1)c1ccc2c(c1)Nc1ccccc1S2` the CC50 [19] was 86.9 µM (active), the IC50 [20] was 35.3 µM (active) and the CC50 [21] was 21.2 µM (active). The IC50 [22] was 4.61 µM (active) and the IC50 [23] was 7.06 µM (active).

In the case of `C=C1C(=O)C23CCC4C(C)(C(=O)OC)CCCC4(C)C2CCC1(O)C3` (stereo unspecified), the AC50 [24] is reported as 0.976 µM (active), the AC50 [1] is reported as 1.27 µM (active) and the AC50 [25] is reported as 5.71 µM (active). For the same compound, the IC50 (Beta Lactamase) was 46.8 µM (inactive), the AC50 [26] was 1.66 µM (active) and the IC50 [27] was 1.36 µM (active).

— ChEMBL document CHEMBL1201862, “PubChem BioAssay data set” (2004)
